Data on two molecules can be found in patent US20240261274A1, “TREATMENT OF MYC-DRIVEN CANCERS WITH GSPT1 DEGRADERS” (MONTE ROSA THERAPEUTICS, INC., priority 2021, published 2024).

Assay [1] deals with WSU-DLCL2 triple hit lymphoma cell line derived xenograft. Description: WSU-DLCL2 triple hit lymphoma CDX efficacy study. The class given is in vivo, immunodeficient mice. Particulars: oral daily 3 mg/kg and 10 mg/kg. How it is done: Additionally, cell line derived xenograft (CDX) models were produced for the triple hit lymphoma cell line (WSU-DLCL2) in immunodeficient mice. Oral dosing of Compound 345 was performed daily at doses of 3 mg/kg and 10 mg/kg as well as the CHOP combination (a well-known lymphoma treatment regimen) and a no-drug vehicle control. Tumor volumes were measured (mm^3) at regular intervals over the course of up to 30 days depending on the animal.
(§1) In vivo efficacy study: NCI-H1155, MM1 S, WSU-DLCL2, DOHH-2 cells were maintained in vitro in individual medium and conditions as recommended by the providers and incubated at 37° C. in an atmosphere of 5% CO2 in air. 0.5 million (NCI-H1155), 10 million (MM1S) or 5 million (WSU-DLCL2 and DOHH-2) cells were resuspended in typically 0.1-0.2 mL of PBS with Matrigel (50:50) and were inoculated into 6-8 weeks old BALB/c nude female (NCI-H115, WSU-DLCL2), NOD/SCID (MM1S) or CB-17SCID (DOHH-2) mice and allowed to grow to 150-200 mm3 in size. […] Tumor volumes were measured at least twice weekly during the treatment period using a caliper and the volume was expressed in mm3 using the formula: V=0.5 a×b2 where a and b were the long and short diameters of the tumor, respectively. […] Data are expressed as the mean±SEM. All data was analyzed using GraphPad Prism 8.1.2 (GraphPad).

Assay [2] concerns NCI-1155 NSCLC cell line derived xenograft. Description: NCI-H1155 NSCLC CDX efficacy study (Compound 345). Type of assay: in vivo, immunodeficient mice. Particulars: oral daily 1, 3 and 10 mg/kg. As to the method: Cell line derived xenograft (CDX) models were produced for the NCI-1155 NSCLC cell line in immunodeficient mice. Oral dosing of Compound 345 was performed daily at doses of 1 mg/kg, 3 mg/kg, and 10 mg/kg with a no-drug vehicle control. Tumor volumes were measured (mm^3) at days 3, 7, 10, 14, and 17.
as §1, with “size. Mice were dosed orally (PO) and daily (QD) with either vehicle or Compound 345 typically at 1.0 mg/kg, 3.0 mg/kg and 10 mg/kg.” for “size.”

The test system of assay [3] is cells for which cereblon was knocked out. Description: Viability in cereblon knock-out cells. Type of assay: cell-based. The text has this:
X-axis axis represents m concentration of compound 8; y-axis represents viability normalized to DMSO.

Assay [4] deals with c-Myc HMEC isogenic cell line. Description: c-Myc and CRBN dependency, HMEC isogenic cell line viability (CellTiterGlo). Type of assay: cell-based, Human. Conditions: 72 hours. As to the method: Human mammary epithelial cells (HMEC) were engineered to express either c-Myc tagged with EGFP or EGFP alone (non myc) (analogous but distinct from Kessler J D et al, Science. 2012 Jan. 20; 335(6066):348-53. doi: 10.1126/science.1212728; Hsu T Y et al, Nature. 2015 Sep. 17; 525(7569):384-8. doi: 10.1038/nature14985). The engineered cells were plated in 6 well plates or seeded at 1000 (myc) or 4000 (non myc) cells/well in a 384 ultra-low attachment plate in a total volume of 40 μL HMEC cell culture media (DMEM/F12+10% HI-FBS+15 mM HEPES+0.5 ug/ml Hydrocortisone+10 ug/ml Insulin+20 ng/ml EGF). Cells were cultured in the presence or absence of doxycycline for 25 population doublings and cell lysates generated for western blotting probing for c-Myc, 4EBP1, phosphor-4EBP1 (p4EBP1) as indicated. β-actin used as a loading control. For the wash-off lane, doxycycline was removed 24 hours before cell lysis. Cell viability was assessed in the presence (Myc on) or absence (Myc off, −Dox) of doxycycline and also following doxycycline removal (Myc off, wash-off). Cell viability was performed following treatment with compound 8 for 72 hours as recommended by the provider (Promega, CellTiterGlo). Similarly, CRBN-dependency was assessed in the HMEC proficient and deficient cell lines induced for c-Myc expression with doxycycline and viability performed as above following 72 hours of treatment with compound 8. EC50 values were determined using Prism8 (GraphPad) and the asymmetric (five-parameter) equation and least squares fit.
In general terms: Cellular ATP, detected with luciferase, serves as a proxy for viable cell number.

pEC50: −log10 of the molar value. Where two headings read alike, the source gives them in different places.

As to `O=C1CCC(N2Cc3ccc(COC(=O)Nc4cc(OC(F)(F)F)ccc4F)cc3C2=O)C(=O)N1` (stereo not shown) [Compound 345, (2-(2,6-dioxopiperidin-3-yl)-3-oxoisoindolin-5-yl)methyl(2-fluoro-5-(trifluoromethoxy)phenyl)carbamate], the tumor volume result in assay [1] was “anti-tumor activity”; in assay [2], “anti-tumor activity and regression”.

Regarding `Cc1ccc(NC(=O)NCc2ccc3c(c2)C(=O)N(C2CCC(=O)NC2=O)C3)cc1Cl` (stereo not shown) [Compound 8], the “induction of death (viability normalized to DMSO)” value in assay [3] is “did not induce death”. Also, in assay [4] (CRBN deficient HMEC induced for c-Myc), the “cell death in cells for which cereblon was knocked out” value is “did not induce death”. Moreover, the pEC50 in assay [4] (Homo sapiens, HMEC, absence of doxycycline-driven c-Myc expression, read-out: cell death, highest concentration tested) was less than 4.52; in assay [4] (Homo sapiens, HMEC, presence of high c-Myc expression (doxycycline), read-out: EC50 of induced cell death), 6.19; in assay [4] (after doxycycline was washed out to remove c-Myc expression, read-out: cell death, highest concentration tested), less than 4.52.
